{"source": "patent US6759238B1", "about": "“Multidrug resistance associated proteins and uses thereof” (priority 1999, dated 2004)", "key": {"[1]": {"test_system": "AZTMP efflux in CEM-r1 cells", "experiment": "Effect of inhibitors of ATP-coupled transporters on AZTMP efflux", "type": "cell-based, human", "settings": "PGA1 50 μM, DPM 10 μM", "description": "(§1) The suspension was centrifuged at 3,300 rpm for 7 minutes. All but 1 ml of the supernatant medium containing the free drug was aspirated. […] The cell pellet was then washed with ice-cold medium and resuspended at the same concentration in drug-free medium and maintained at 37° C."}, "[2]": {"test_system": "AZTMP efflux in CEM-SS cells", "experiment": "Effect of inhibitors of ATP-coupled transporters on AZTMP efflux", "type": "cell-based, human", "settings": "PGA1 50 μM, DPM 10 μM", "description": "as §1"}, "CEM-r1 cells [3]": {"test_system": "CEM-r1 cells", "experiment": "Efflux of [3H]-AZT and its metabolites", "type": "in vitro ADME, human", "description": "(§2) Cells were incubated for 60 minutes with [^3H]-AZT (10 μM) after which they were washed free of radioactivity, resuspended in drug-free medium and the intracellular and the extracellular concentration of [^3H]-AZT were measured. […] At least 80% of the AZTMP present intracellularly in CEM-r1 cells was excreted into the medium in 10 minutes (FIG. 6A).\n(§3) Referring to Table 6 in greater detail, efflux kinetics were studied. Transport analysis of PMEA was conducted as previously described^48. […] The cells were then washed free of radioactivity and then incubated in drug-free medium in the presence of sodium azide and 2-deoxy-D-glucose. At various time periods, the amount of intracellular AZTMP was measured. As reported in Table 6, depletion of ATP led to an inhibition of AZTMP efflux (i.e. a significant accumulation of AZTMP in the CEM-r1 cells but not in the CEM-SS cells).\nas §1, with “C. […] An aliquot of the top layer (cell free media) was analyzed for the quantitation of AZT and its metabolites.” for “C.”"}, "[4]": {"experiment": "Efflux of [3H]-AZT and its metabolites", "type": "in vitro ADME, human", "settings": "human, read-out: Efflux kinetics, AZTMP t½", "description": "as §2, §3\nas §1, with “C. […] An aliquot of the top layer (cell free media) was analyzed for the quantitation of AZT and its metabolites.” for “C.”"}, "CEM-SS cells [5]": {"test_system": "CEM-SS cells", "experiment": "Efflux of [3H]-AZT and its metabolites", "type": "in vitro ADME, human", "design": "half-life: dose or concentration left out as unconfirmed", "settings": "CEMss, no treatment, after loading with [3H]-AZT", "description": "as §2, §3\nas §1, with “C. […] An aliquot of the top layer (cell free media) was analyzed for the quantitation of AZT and its metabolites.” for “C.”"}, "[6]": {"experiment": "Efflux of [3H]-AZT and its metabolites", "type": "in vitro ADME, human", "design": "half-life: dose or concentration left out as unconfirmed", "settings": "human, CEMss, read-out: Efflux kinetics, AZTMP t½", "description": "as §2, §3\nas §1, with “C. […] An aliquot of the top layer (cell free media) was analyzed for the quantitation of AZT and its metabolites.” for “C.”"}, "CEM-r1 cells [7]": {"test_system": "CEM-r1 cells", "experiment": "Phosphorylation of AZT", "type": "in vitro ADME, human", "settings": "for Extracellular Concentration / Intracellular Concentration: CEM-r1, 10 μM AZT", "description": "(§4) The appearance of the phosphorylated metabolites into the medium was also determined in both the cell lines. AZTDP and AZTTP were not detected in the medium of either CEM-SS or CEM-r1 cells. However, the amount of AZTMP accumulated in the media was approximately 3-fold higher in CEM-r1 cells than in CEM-SS cells.\n(§5) The cartridges were conditioned with 10% MeOH Ammonium Phosphate Buffer (5 mM, pH 4.0). The sample was loaded onto the column. […] AZTDP and AZTTP were eluted with 10% MeOH Ammonium Phosphate Buffer (700 mm, pH 4.6)."}, "CEM-SS cells [8]": {"test_system": "CEM-SS cells", "experiment": "Phosphorylation of AZT", "type": "in vitro ADME, human", "settings": "10 μM AZT", "description": "as §4, §5"}, "[9]": {"settings": "CEMr-1, no treatment, after loading with [3H]-AZT"}}, "note": "Where “and” joins values, the source holds several entries; their conditions need not be identical. Equal entries are not always repeated. Where two headings read alike, the source gives them in different places."}
{"molecule": "CCCCC[C@H](O)/C=C/[C@H]1C=CC(=O)[C@@H]1CCCCCCC(=O)O", "note": "[PGA1, prostaglandin A1]", "values": [{"measurement": "Effect on efflux of AZTMP", "setting": "[1]", "result": "markedly inhibited"}, {"measurement": "Effect on efflux of AZTMP", "setting": "[2]", "result": "no effect"}]}
{"molecule": "Cc1cn([C@H]2C[C@H](N=[N+]=[N-])[C@@H](COP(=O)(O)O)O2)c(=O)[nH]c1=O", "note": "[AZTMP, azido-thymidine monophosphate]", "values": [{"measurement": "Intracellular AZTMP excreted into the medium", "setting": "CEM-r1 cells [3]; CEM-r1, in 10 minutes", "result": "At least 80%"}, {"measurement": "Efflux kinetics, AZTMP t½", "setting": "CEM-r1 cells [3]; [9]", "result": "4 min and 4.3 min"}, {"measurement": "half-life at 10 μM", "setting": "[4]; CEMr-1, Azide + Deoxyglucose", "result": 18.1, "unit": "min"}, {"measurement": "half-life at 10 μM", "setting": "[4]; [9]", "result": 4.5, "unit": "min"}, {"measurement": "Efflux kinetics, AZTMP t½", "setting": "CEM-SS cells [5]", "result": 17.1, "unit": "min"}, {"measurement": "half-life at 10 μM", "setting": "[6]; Azide + Deoxyglucose", "result": 16.3, "unit": "min"}, {"measurement": "half-life", "setting": "[6]; no treatment, after loading with [3H]-AZT", "result": 17.5, "unit": "min"}, {"measurement": "Amount accumulated in the media, CEM-r1 vs CEM-SS", "setting": "CEM-r1 cells [7]; 10 μM AZT", "result": "approximately 3 fold"}, {"measurement": "Extracellular Concentration", "setting": "CEM-r1 cells [7]; 4 hours", "result": 132, "unit": "nM"}, {"measurement": "Intracellular Concentration", "setting": "CEM-r1 cells [7]; 4 hours", "result": 13.6, "unit": "µM"}, {"measurement": "Extracellular Concentration", "setting": "CEM-r1 cells [7]; 8 hours", "result": 420, "unit": "nM"}, {"measurement": "Intracellular Concentration", "setting": "CEM-r1 cells [7]; 8 hours", "result": 15.9, "unit": "µM"}, {"measurement": "Extracellular Concentration", "setting": "CEM-r1 cells [7]; 24 hours", "result": 1716, "unit": "nM"}, {"measurement": "Intracellular Concentration", "setting": "CEM-r1 cells [7]; 24 hours", "result": 12.3, "unit": "µM"}, {"measurement": "Extracellular Concentration", "setting": "CEM-SS cells [8]; 4 hours", "result": 46, "unit": "nM"}, {"measurement": "Intracellular Concentration", "setting": "CEM-SS cells [8]; 4 hours", "result": 89, "unit": "µM"}, {"measurement": "Extracellular Concentration", "setting": "CEM-SS cells [8]; 8 hours", "result": 151, "unit": "nM"}, {"measurement": "Intracellular Concentration", "setting": "CEM-SS cells [8]; 8 hours", "result": 95, "unit": "µM"}, {"measurement": "Extracellular Concentration", "setting": "CEM-SS cells [8]; 24 hours", "result": 555, "unit": "nM"}, {"measurement": "Intracellular Concentration", "setting": "CEM-SS cells [8]; 24 hours", "result": 50, "unit": "µM"}]}
